This is an account of results in patent US20110275643A1, “AROYLQUINOLINE COMPOUNDS” (NATIONAL HEALTH RESEARCH INSTITUTES, priority 2010, published 2011).

Data set [1] concerns oral epidermoid carcinoma KB cells. The data set can be described thus: In vitro cell growth inhibition, methylene blue dye assay, KB cells. The data set is classed as cell-based, Human. As to conditions: Homo sapiens. As to the method:
(§1) Human oral epidermoid carcinoma KB cells, non-small-cell lung carcinoma H460 cells, colorectal carcinoma HT29 cells and stomach carcinoma MKN45 cells were maintained in RMPI-1640 medium supplied with 5% fetal bovine serum (FBS). […] Cells in logarithmic phase were cultured at a density of 5000 cells/mL/well in a 24-well plate. KB-VIN10 cells were cultured in drug-free medium for 3 days prior to use. The cells were exposed to various concentrations of the test drugs for 72 hours. The methylene blue dye assay was used to evaluate the effect of the test compounds on cell growth (Finlay et al., 1984).

The subject of data set [2] is non-small-cell lung carcinoma H460 cells. Kind of data set: In vitro cell growth inhibition, methylene blue dye assay, H460 cells. Conditions: Homo sapiens, read-out: IC50 on the proliferation of cells, H460. It is filed as cell-based, Human. As to the method: as §1
In data set [3] the test system is colorectal carcinoma HT29 cells. The data set can be described thus: In vitro cell growth inhibition, methylene blue dye assay, HT29 cells. As to conditions: Homo sapiens, read-out: IC50 on the proliferation of cells, HT29. The data set is classed as cell-based, Human. As to the method: as §1
Data set [4] deals with stomach carcinoma MKN45 cells. The data set can be described thus: In vitro cell growth inhibition, methylene blue dye assay, MKN45 cells. It is filed as cell-based, Human. Conditions: Homo sapiens, read-out: IC50 on the proliferation of cells, MKN45. As to the method:
as §1

The test system of data set [5] is KB-VIN10 cells (overexpression of P-gp170/MDR). The data set can be described thus: In vitro cell growth inhibition, methylene blue dye assay, MDR-positive KB-VIN10 cells. The data set is classed as cell-based, Human. Conditions: Homo sapiens, read-out: IC50 on the proliferation of cells, KB-VIN10. As to the method:
as §1

Data set [6] deals with five cancer cell lines (KB, H460, HT29, MKN45, KB-VIN10). Kind of data set: Antiproliferative activity, mean over five cancer cell lines. It is filed as cell-based, Human. As to the method: The synthesized compounds 5 to 17 were evaluated for antiproliferative activities against four carcinoma cells, oral epidermoid carcinoma KB cells, non-small-cell lung carcinoma H460 cells, colorectal carcinoma HT29 cells and stomach carcinoma MKN45 cells, as well as the MDR-positive cell lines KB-VIN10, that overexpressed P-gp 170/MDR (Table 1). The controls were compounds 1 and 3.
as §1

The mark [7] stands for this setting: read-out: 50% Inhibition concentration (IC50) on the proliferation of KB cells line, Table 2, KB cells.
The mark [8] stands for this setting: KB cells, 72 hours, mean ± SD, read-out: IC50 on the proliferation of cells, KB.
Setting [9] is: NCI-H460, H460 cells, 72 hours, mean ± SD.
Where [10] appears, read: HT-29, HT29 cells, 72 hours, mean ± SD.
The mark [11] stands for this setting: MKN-45, MKN45 cells, 72 hours, mean ± SD.
Setting [12] is: KB-VIN10 cells, 72 hours, mean ± SD.

Where two headings read alike, the source gives them in different places. Bounds are passed on as bounds.

Broadly, the melting point is the temperature, or range, at which the solid turns liquid. `COc1cc2nc(-c3ccc(N(C)C)cc3)ccc2c(OC)c1OC` [Compound 65, 2-[4′-(N,N-dimethylamino)phenyl]-5,6,7-trimethoxyquinoline]: the melting point was in the range of 154 to 155 °C. For the same molecule, the IC50 in data set [1] (setting [7]) was over 10 µM.
As to `COc1cc2nc(C(=O)c3ccc(F)cc3)ccc2c(OC)c1OC` [Compound 51, 2-(4′-fluorobenzoyl)-5,6,7-trimethoxyquinoline], the melting point was in the range of 145 to 146 °C.
`COc1cc(C(=O)c2ccc3c(ccc[n+]3[O-])c2)cc(OC)c1OC` [Compound 16, 6-(3′,4′,5′-trimethoxybenzoyl)quinoline N-oxide] showed a melting point of 175 to 176 °C. Besides, in data set [1] (setting [8]), the IC50 was 0.83 ± 0.172 µM. Besides, in data set [2] (setting [9]), the IC50 is 1.1 ± 0.15 µM. Also, the IC50 in data set [3] (setting [10]) came to 0.872 ± 0.0862 µM. Moreover, in data set [4] (setting [11]), the IC50 was 0.617 ± 0.085 µM. For the same molecule, the IC50 in data set [5] (setting [12]) was determined as 0.764 ± 0.111 µM. In data set [6] (versus compound 9), the “fold reduction of activity compared with compound 9” value is over 10 fold.
For the molecule `COc1cc(C(=O)c2ccc3c(Cl)c(OC)ccc3n2)cc(OC)c1OC` [Compound 47, 5-chloro-6-methoxy-2-(3′,4′,5′-trimethoxybenzoyl)quinoline], the melting point was 176 to 177 °C. The IC50 in data set [1] (setting [7]) came to 0.045 µM.
For `COc1cc(C(=O)c2ccc3c(C#N)c(OC)ccc3n2)cc(OC)c1OC` [Compound 43, 5-cyano-6-methoxy-2-(3′,4′,5′-trimethoxybenzoyl)quinoline] the same measures were 191 to 192 °C and 0.017 µM.
For `COc1cc(-c2ccc3c(N)c(OC)ccc3n2)cc(OC)c1OC` [Compound 58, 5-amino-6-methoxy-2-(3′,4′,5′-trimethoxyphenyl)quinoline] the same measures were 222 to 223 °C and over 10 µM.
`COc1cc2c(C(=O)c3ccc(N(C)C)cc3)ccnc2c(OC)c1OC` [Compound 68, 4-[4′-(N,N-dimethyl)-benzoyl]-6,7,8-trimethoxyquinoline]: the IC50 in data set [1] (setting [7]) worked out at 0.226 µM.
As to `COc1cc(C(=O)c2ccc3c(Br)c(OC)ccc3n2)cc(OC)c1OC` [Compound 42, 5-bromo-6-methoxy-2-(3′,4′,5′-trimethoxybenzoyl)quinoline], the melting point was in the range of 163 to 165 °C. Also, in data set [1] (setting [7]), the IC50 is 0.108 µM.
Consider `COc1cc(C(=O)c2ccc3c(ccc[n+]3C)c2)cc(OC)c1OC.[I-]` [Compound 17, 6-(3′,4′,5′-trimethoxybenzoyl)-1-methylquinolinium iodide], for which the melting point lay in the range of 187 to 188 °C. In addition, in data set [1] (setting [8]), the IC50 was over 10 µM. Further, the IC50 in data set [2] (setting [9]) is over 10 µM. Also, the IC50 in data set [3] (setting [10]) is over 10 µM. For the same molecule, the IC50 in data set [4] (setting [11]) is over 10 µM. Moreover, the IC50 in data set [5] (setting [12]) was over 10 µM. In data set [6] (five cancer cell lines), the “cytotoxicity / antiproliferative activity in words” value is given as “drastic loss of activity”.
For `COc1ccc(-c2ccc3c(OC)c(OC)c(OC)cc3n2)cc1F` [Compound 66, 2-(3′-fluoro-4′-methoxyphenyl)-5,6,7-trimethoxyquinoline], the melting point lay in the range of 129 to 130 °C. The IC50 in data set [1] (setting [7]) is over 10 µM.
The like results for `COc1cc(C(=O)c2ccc3c(I)c(OC)ccc3n2)cc(OC)c1OC` [Compound 34, 5-iodo-6-methoxy-2-(3′,4′,5′-trimethoxybenzoyl)quinoline] were, in that order, 202 to 204 °C and 0.451 µM.
On to `COc1cc(C(=O)c2cnc3ccccc3c2)cc(OC)c1OC` [Compound 6, 3-(3′,4′,5′-trimethoxybenzoyl)quinoline], for which the melting point lay in the range of 107 to 109 °C. In addition, the IC50 in data set [1] (setting [8]) came to 1.8 ± 0.1 µM. Also, the IC50 in data set [2] (setting [9]) was found to be 1.6 ± 0.38 µM. Further, the IC50 in data set [3] (setting [10]) was 1 ± 0.21 µM. In data set [4] (setting [11]), the IC50 amounted to 0.562 ± 0.042 µM. For the same molecule, the IC50 in data set [5] (setting [12]) turned out to be 1.1 ± 0.22 µM.
In the case of `COc1ccc(C(=O)c2ccc3c(OC)c(OC)c(OC)cc3n2)cc1` [Compound 49, 2-(4′-methoxybenzoyl)-5,6,7-trimethoxyquinoline], the melting point lay within 103 to 105 °C. In addition, the IC50 in data set [1] (setting [7]) was over 1 µM.
For the molecule `COc1cc(Oc2ccc3c(N)c(OC)ccc3n2)cc(OC)c1OC` [Compound 60, 5-amino-6-methoxy-2-(3′,4′,5′-trimethoxyphenoxy)quinoline], the melting point fell in the range of 209 to 210 °C.
As to `COc1cc(C(=O)c2ccc3c(O)c(OC)ccc3n2)cc(OC)c1O` [Compound 87, 5-hydroxy-6-methoxy-2-(4′-hydroxy-3′,5′-dimethoxybenzoyl)quinoline], the IC50 in data set [1] (setting [7]) was determined as 0.471 µM.
With `COc1cc(C(=O)c2ccnc3ccccc23)cc(OC)c1OC` [Compound 7, 4-(3′,4′,5′-trimethoxybenzoyl)quinoline], the melting point was 109 to 110 °C. In addition, the IC50 in data set [1] (KB, 72 h, read-out: IC50 on the proliferation of cells, KB) worked out at 3.5 ± 0.7 µM. For the same molecule, in data set [2] (NCI-H460, 72 h), the IC50 was 3.8 ± 0.52 µM. Besides, the IC50 in data set [3] (HT-29, 72 h) amounted to 2.3 ± 0.48 µM. Also, the IC50 in data set [4] (MKN-45, 72 h) turned out to be 0.92 ± 0.09 µM. Further, the IC50 in data set [5] (KB-VIN10, 72 h) was 2.2 ± 0.6 µM.
`COc1cc(C(=O)c2cccc3ncccc23)cc(OC)c1OC` [Compound 8, 5-(3′,4′,5′-trimethoxybenzoyl)quinoline] returned a melting point of 145 to 147 °C. For the same molecule, in data set [1] (setting [8]), the IC50 is 2.9 ± 0.4 µM. In data set [2] (setting [9]), the IC50 was 3.8 ± 0.62 µM. In addition, the IC50 in data set [3] (setting [10]) was 2.8 ± 0.31 µM. Moreover, the IC50 in data set [4] (setting [11]) turned out to be 1.2 ± 0.15 µM. Further, the IC50 in data set [5] (setting [12]) was 2.3 ± 0.4 µM.
Take `COc1cc(Nc2ccc3c(N)c(OC)ccc3n2)cc(OC)c1OC` [Compound 62, 5-amino-6-methoxy-2-(3′,4′,5′-trimethoxyphenylamino)quinoline]: the melting point was 222 to 223 °C. In addition, in data set [1] (setting [7]), the IC50 was over 10 µM.
For `COc1cc(C(=O)c2ccc3c(-c4ccncc4)c(OC)ccc3n2)cc(OC)c1OC` [Compound 33, 6-methoxy-5-pyridinyl-2-(3′,4′,5′-trimethoxybenzoyl)quinoline] the same measures were 203 to 205 °C and 0.472 µM.
In turn, `COc1cc(C(=O)c2cccc3cccnc23)cc(OC)c1OC` [Compound 11, 8-(3′,4′,5′-trimethoxybenzoyl)quinoline] displayed a melting point of 153 to 155 °C. For the same molecule, the IC50 in data set [1] (setting [8]) is 8.1 ± 0.7 µM. For the same molecule, the IC50 in data set [2] (setting [9]) was found to be 5 ± 0.92 µM. In addition, the IC50 in data set [3] (setting [10]) is 4.5 ± 1.1 µM. Moreover, the IC50 in data set [4] (setting [11]) amounted to 3.2 ± 0.7 µM. Moreover, the IC50 in data set [5] (setting [12]) worked out at 6 ± 0.8 µM.
As for `COc1ccc(C(=O)c2ccnc3c(OC)c(OC)c(OC)cc23)cc1` [Compound 54, 4-(4′-methoxybenzoyl)-6,7,8-trimethoxyquinoline], the IC50 in data set [1] (setting [7]) was determined as 1.3 µM.
Same read-out and setting: the result for `COc1cc(Sc2ccc3c(N)c(OC)ccc3n2)cc(OC)c1OC` [Compound 82, 5-amino-6-methoxy-2-(3′,4′,5′-trimethoxyphenylthio)quinoline] reads under 0.01 µM.
Turning to `COc1cc(C(=O)c2ccc3c(C#CC(C)(C)O)c(OC)ccc3n2)cc(OC)c1OC` [Compound 44, 5-(3″-hydroxy-3″-methylbut-1″-ynyl)-6-methoxy-2-(3′,4′,5′-trimethoxybenzoyl)quinoline], the melting point fell in the range of 151 to 153 °C. The IC50 in data set [1] (setting [7]) was found to be 0.495 µM.
With `COc1cc(S(=O)(=O)c2ccc3c(N)c(OC)ccc3n2)cc(OC)c1OC` [Compound 84, 5-amino-6-methoxy-2-(3′,4′,5′-trimethoxyphenylsulfonyl)quinoline], the IC50 in data set [1] (setting [7]) was under 0.01 µM.
The molecule `COc1cc(C(=O)c2ccc3nccnc3c2)cc(OC)c1OC` [Compound 75, 6-(3′,4′,5′-trimethoxybenzoyl)quinoxaline] gave a melting point of 149 to 151 °C.
Consider `COc1ccc(C(=O)c2ccnc3c(OC)c(OC)c(OC)cc23)cc1F` [Compound 67, 4-(3′-fluoro-4′-methoxybenzoyl)-6,7,8-trimethoxyquinoline], for which the melting point lay in the range of 117 to 118 °C. Besides, the IC50 in data set [1] (setting [7]) stood at 1.67 µM.
For `COc1ccc(-c2ccc3c(OC)c(OC)c(OC)cc3n2)cc1` [Compound 64, 2-(4′-methoxyphenyl)-5,6,7-trimethoxyquinoline] the same measures were 136 to 137 °C and over 10 µM.
For `COc1ccc(C(=O)c2ccc3c(OC)c(OC)c(OC)cc3n2)cc1F` [Compound 50, 2-(3′-fluoro-4′-methoxybenzoyl)-5,6,7-trimethoxyquinoline] the same measures were 137 to 139 °C and over 10 µM.
On to `COc1cc(C(=O)c2ccc3c(-c4ccc(O)cc4)c(OC)ccc3n2)cc(OC)c1OC` [Compound 30, 5-(4″-hydroxyphenyl)-6-methoxy-2-(3′,4′,5′-trimethoxybenzoyl)quinoline], for which the melting point fell in the range of 201 to 203 °C. Besides, the IC50 in data set [1] (setting [7]) was over 10 µM.
